From patent US8673947B2, “Enhanced migraine treatments based on ghrelin mimetics” (Helsinn Therapeutics (U.S.), Inc., priority 2009, dated 2014)
Like-named read-outs stand apart in the source and are kept apart here.

Tests used:
[1] = Pharmacokinetic two period crossover study of oral sumatriptan with or without anamorelin hydrochloride; assay type: in vivo; conditions: both sexes, human, plasma, 25 mg/dose
Procedure: The study was a two period crossover study in 22 healthy, normal men and women ages 18-45 years, conducted in open label format. […] Subjects were fasted overnight with a seven day wash out period between periods. […] All samples were analyzed using a validated bioanalytical method (LC-MS-MS).

[2] = Imitrex tablets, cited from earlier work

For `CNS(=O)(=O)Cc1ccc2[nH]cc(CCN(C)C)c2c1` [Sumatriptan, 1-[3-(2-dimethylaminoethyl)-1H-indol-5-yl]-N-methyl-methanesulfonamide], which AUC(0-t) ([1]; plasma sumatriptan, sumatriptan succinate 25 mg oral tablet, alone or with anamorelin HCl 100 mg oral, fasted healthy subjects, N = 22, read-out: AUC 0-30, Mean) is on record?
Its AUC(0-t) is 2.53 ng·h/mL.

And the AUC(0-t) ([1]; plasma sumatriptan, sumatriptan succinate 25 mg oral tablet, alone or with anamorelin HCl 100 mg oral, fasted healthy subjects, N = 22, read-out: AUC 0-30, Median)?
The AUC(0-t) was 2.56 ng·h/mL.

And the Cmax ([1]; plasma sumatriptan, sumatriptan succinate 25 mg oral tablet, alone or with anamorelin HCl 100 mg oral, fasted healthy subjects, N = 22, read-out: Cmax, Mean)?
The Cmax was 20.3 ng/mL.

What about the Cmax ([1]; plasma sumatriptan, sumatriptan succinate 25 mg oral tablet, alone or with anamorelin HCl 100 mg oral, fasted healthy subjects, N = 22, read-out: Cmax, Median) of the same molecule?
Its Cmax is 20.4 ng/mL.

And the Tmax ([1]; plasma sumatriptan, sumatriptan succinate 25 mg oral tablet, alone or with anamorelin HCl 100 mg oral, fasted healthy subjects, N = 22, read-out: Tmax, Mean (converted))?
Its Tmax is 1.12 h.

And the Tmax ([1]; plasma sumatriptan, sumatriptan succinate 25 mg oral tablet, alone or with anamorelin HCl 100 mg oral, fasted healthy subjects, N = 22, read-out: Tmax, Median (converted))?
Its Tmax is 0.883 h.

And the AUC(0-t) ([1]; read-out: AUC last, Mean)?
The AUC(0-t) was 45.6 ng·h/mL.

What about the “time after administration until maximum blood concentrations are reached” value ([2]; during a migraine attack) of the same molecule?
Its value is 2.5 h.

What about the “time after administration to reach maximum concentration in the plasma (average)” value ([2]; healthy adults) of the same molecule?
The value was 2.0 h.
